No end group written: not given here.
Key:
HIV-1IIIB = assay: HIV-1 antiviral (cytopathic effect) assay in CEM-SS cells; conditions: for antiviral activity of positive control compounds: HIV-1IIIB in CEM-SS cells; for reduction of the cytopathic effect (CPE) in HIV-1 infected CEM-SS cells: 10 micrograms per ml, HIV-1IIIB, MTS readout
HCMV strain AD169 = assay: HCMV plaque formation assay in MRC-5 cells; conditions: for inhibition of HCMV plaque formation as compared to the virus control experiment: 10 micrograms per ml, MRC-5 cells, 7-10 days
Streptococcus pneumoniae = Streptococcus pneumoniae assay; conditions: 10 micrograms per ml; visual reading
murine spleen cells = assay: Th1/Th2 cytokine profiling assay; type: cell-based, mouse; conditions: 10 micrograms per ml; Ovalbumin-restimulated murine spleen cells; 72 hours
HUVEC = assay: Endothelial tube formation assay; type: cell-based, human; conditions: 10 micrograms per ml, 20 hours
From the text: Positive control wes vehicle only.

[1] = system: Primary Human endothelial cells (HUVEC); assay: Endothelial cell migration assay; type: cell-based; conditions: 10 micrograms per ml, 22 hours
[2] = system: hepatitis B virus (HBV) ayw strain; assay: HBV experimental assay system (secreted HBV DNA, TaqMan PCR); type: cell-based; conditions: 10 micrograms per ml; HepG2-2.2.15 cells; HBV DNA after six days

Row | Molecule | antiviral activity of positive control compounds (HIV-1IIIB) | antiviral activity of positive control compound (HCMV strain AD169; positive control, HCMV in MRC-5 cells) | inhibition of the growth of Streptococcus pneumoniae (Streptococcus pneumoniae) | change of the production of IL-5 (murine spleen cells) | decrease of the production of IFN-γ (murine spleen cells) | increase (induction) of the production of TNF-α (murine spleen cells) | increase of the production of IL-2 (murine spleen cells) | increase of the production of IL-4 (murine spleen cells) | inhibition of the tube formation of human endothelial cells (HUVEC) | reduction of the cytopathic effect (CPE) in HIV-1 infected CEM-SS cells (HIV-1IIIB) | inhibition of the migration of human endothelial cells [1] | inhibition of HBV replication as compared to the virus control infection [2] | inhibition of HCMV plaque formation as compared to the virus control experiment (HCMV strain AD169)
1 | Cc1cn([C@H]2C[C@H](N=[N+]=[N-])[C@@H](CO)O2)c(=O)[nH]c1=O [AZT, zidovudine, reference compound] | expected levels of antiviral activity |  |  |  |  |  |  |  |  |  |  |  | 
2 | Nc1nc(O)c2ncn(COC(CO)CO)c2n1 [Ganciclovir, reference compound] |  | expected levels of antiviral activity |  |  |  |  |  |  |  |  |  |  | 
3 | CC(C)(C)NC(=O)[C@@H]1CN(Cc2cccnc2)CCN1C[C@@H](O)C[C@@H](Cc1ccccc1)C(=O)N[C@H]1c2ccccc2C[C@H]1O [indinavir, reference compound] | expected levels of antiviral activity |  |  |  |  |  |  |  |  |  |  |  | 
4 | His-Ser-Leu-Gly-Lys-Trp-Leu-Gly-His-Pro-Asp-Lys-Phe (HSLGKWLGHPDKF; printed: His-Ser-Leu-Gly-Lys-Trp-Leu-Gly-His-Pro-Asp-Lys-Phe) [Peptide 1] |  |  | 100% | did not significantly change | did not significantly change | 21.2% | 106.5% | 117.8% | 10% | 43.9% | 12% | 43.4% | did not inhibit
5 | Pro-Gly-Thr-Cys-Glu-Ile-Cys-Ala-Tyr-Ala-Ala-Cys-Thr-Gly-Cys-OH (PGTCEICAYAACTGC-OH; cysteine pairing not given here) [Peptide 2] |  |  | no effect | did not significantly change | 38% | did not significantly change | 35.5% | 43.8% | 10% | 13.2% | 24% | 21.7% | did not inhibit

Reference: US20100197600A1, “USE OF THE PEPTIDE HIS-SER-LEU-GLY-LYS-TRP-LEU-GLY-HIS-PRO-ASP-LYS-PHE ALONE OR IN COMBINATION WITH THE PEPTIDE PRO-GLY-THR-CYS-GLU-ILE-CYS-ALA-TYR-ALA-ALA-CYS-THR-GLY-CYS-OH AS A THERAPEUTIC AGENT” (priority 2007, published 2010)
